In patent publication US12359188B2, “Method for producing therapeutic exosomes from nanoelectroporation and other non-endocytic cell transfection” (Ohio State Innovation Foundation, priority 2017, dated 2025):

System: NEP transfected MEF cells
Assay: Effect of HSP70/HSP90 inhibitors on EV secretion from NEP transfected MEF cells (DLS goniometry)
Type: cell-based, mouse
Settings: medium collected 24 h post-transfection
Experimental: After NEP transfection, the cell culture was replaced with fresh medium containing HSP70 inhibitor (VER 155008, 50 μM), HSP90 inhibitor (NVP-HSP990, 1 μM), or their mixture. Medium was collected at 24 h post-transfection, and EV numbers were detected by dynamic light scattering (DLS) goniometry;
During electroporation, Joule heating caused by the imposed electric field could tentatively increase the cell temperature to cause thermal shocking to the transfected cells. It is known that thermal shocking may increase cell secretion of EVs due to chaperone mediated autophage caused by the increase of heat shock proteins in cells (8-10). […] When HSP inhibitors were added in cell culture medium after electroporation, EV secretion could be suppressed. […] Here, the cell culture was replaced with fresh medium containing HSP70 inhibitor (VER 155008), HSP90 inhibitor (NVP-HSP990), or their mixture right after NEP transfection. Medium was collected at 24 h post-transfection and EV numbers were detected by dynamic light scattering (DLS) goniometry.

| Compound | decrease of EV secretion (HSP90 inhibitor 1 μM in fresh medium right after NEP transfection) [%] | decrease of EV secretion (HSP70 inhibitor 50 μM in fresh medium right after NEP transfection) [%] |
| --- | --- | --- |
| COc1cccc(-c2cc(F)ccc2[C@H]2Cc3nc(N)nc(C)c3C(=O)N2)n1 [NVP-HSP990] | 40 | – |
| N#Cc1ccc(COC[C@H]2O[C@@H](n3c(NCc4ccc(Cl)c(Cl)c4)nc4c(N)ncnc43)[C@H](O)[C@@H]2O)cc1 [VER 155008] | – | 50 |
